Patent publication US11071768B2, “Caspofungin compositions for inhalation” (TRILOGY THERAPEUTICS, INC., priority 2018, dated 2021)
Values after ≈ are worked out from the molar mass of the structure shown. Values joined by “and” are separate entries in the source; they are usually repeats but may differ in a detail not shown here. Identical values can stand only once. Like-named read-outs stand apart in the source and are kept apart here.

Assays:
[1] = test system: All Candida spp.; details: All Candida spp., 5,346 isolates; cited from earlier work
[2] = test system: Aspergillus versicolor; details: 75 isolates; cited from earlier work
[3] = test system: Aspergillus niger; details: cited from earlier work
[4] = test system: Candida parapsilosis; details: 759 isolates; cited from earlier work
[5] = test system: Candida tropicalis; details: 625 isolates; cited from earlier work
[6] = test system: Aspergillus flavus; details: cited from earlier work
[7] = test system: Aspergillus fumigatus; details: cited from earlier work
[8] = test system: Candida guilliermondii; details: 61 isolates; cited from earlier work
[9] = test system: Candida albicans; details: 2869 isolates; cited from earlier work
[10] = test system: Candida krusei; details: 136 isolates; cited from earlier work
[11] = test system: Candida glabrata; details: 747 isolates; cited from earlier work
[12] = Toxicology observations in the rat pharmacokinetic study; assay type: in vivo; details: male rats, nose-only inhalation or intravenous injection
Description: A detailed, hand-held physical examination was conducted on all animals once during the quarantine period (prior to randomization). During the treatment period, the animals were observed daily for mortality or evidence of moribundity; these checks were separated by a minimum of four hours. Daily cage-side clinical observations were conducted during exposure, and daily hand-held clinical observations were conducted before and after exposure. Observations included, but were not limited to the following: changes in the skin and fur, eyes, and mucous membranes; effects on the respiratory, circulatory, autonomic and central nervous systems; and effects on somatomotor activity and behavior pattern.
Body Weights and Body Weight Changes: Body weights were determined one day after animal receipt; at randomization; and prior to exposure on Study Day 1, 2, 3 and 7 (as applicable based on scheduled euthanization).
Plasma and Tissue Samples/Necropsy: Whole blood samples were collected from three animals per time-point at approximately 0.5, 1, 2, 4, 8, 12, 24 and 48 hours and 7 days after dose administration for plasma drug level determination. Rats were anesthetized with 70% CO2/30% air and blood was collected from the retro-orbital plexus and placed into tubes containing anticoagulant (EDTA). Blood samples were placed on ice immediately following collection and processed (i.e., centrifuged) to plasma. The samples were then stored frozen (at approximately −70° C.) until analyzed. All study animals surviving to scheduled necropsy were euthanized by an overdose of an intraperitoneal injection of sodium pentobarbital at […]. Tissue specimens (lung, liver and kidney) were collected from three animals per time point at 0.5, 2, 24 and 48 hours and 7 days after dose administration. All tissue specimens were stored frozen at approximately −70° C. until analyzed.

[13] = test system: Aspergillus nidulans; details: cited from earlier work
[14] = test system: Aspergillus terrus; details: cited from earlier work
[15] = 2 mg/kg, cited from earlier work
[16] = test system: Trichophyton rubrum ATCC 10218; test: In vitro broth microdilution assay (CLSI); assay type: cell-based
Description: (§1) The antifungal potency of the test article(s) was measured using the in vitro broth microdilution assay under assay conditions described by the Clinical and Laboratory Standards Institute. In this assay, the Minimum Inhibitory Concentration (MIC) is defined as the lowest concentration of an agent that causes a specified reduction in visible growth of the microorganism. The Minimal Effective Concentration (MEC) is defined as the lowest concentration of an agent that leads to the growth of small, rounded, compact hyphal forms as compared to the hyphal growth seen in the growth control well. In this study, MIC values are determined for the 9 Candida species and Cryptococcus neoformans. MEC values are determined for 3 filamentous fungi (2 Aspergillus fumigatus and Trichophyton rubrum). Test articles were prepared as the following:
(§2) The 3.2 mg/mL working stock solution was 2-fold diluted serially in 0.9% NaCl to prepare a total of eleven 50-fold stock solutions, concentrations ranging from 3.2 to 0.003 mg/mL. A 4 μL aliquot of each dilution was added to 196 μL of broth medium seeded with the organism suspension in wells of a 96 well plate (fungal cell count: 1×10^3 to 1×10^4 colony forming units per mL). The final volume was 200 μL in each well. Following incubation, the test plates were visually examined and wells were scored for growth or complete growth inhibition to define the MIC values. Microscopy examination was used to determine the MEC values. Each test substance was evaluated in duplicate and the results below are the duplicate test values. Vehicle-control and an active reference agent were used as blank and positive controls, respectively.

[17] = test system: Candida krusei ATCC 6258; test: In vitro broth microdilution assay (CLSI); assay type: cell-based
Description: as §1, §2

[18] = test system: Candida albicans Azole-R (20186.025); test: In vitro broth microdilution assay (CLSI); assay type: cell-based
Description: as §1, §2

[19] = test system: Candida albicans ATCC90028; test: In vitro broth microdilution assay (CLSI); assay type: cell-based
Description: as §1, §2

[20] = test system: Candida albicans Azole-R (20183.073); test: In vitro broth microdilution assay (CLSI); assay type: cell-based
Description: as §1, §2

[21] = test system: Aspergillus fumigatus ATCC204305; test: In vitro broth microdilution assay (CLSI); assay type: cell-based
Description: as §1, §2

[22] = test system: Candida tropicalis ATCC 200956; test: In vitro broth microdilution assay (CLSI); assay type: cell-based
Description: as §1, §2

[23] = test system: Cryptococcus neoformans ATCC 24067; test: In vitro broth microdilution assay (CLSI); assay type: cell-based
Description: as §1, §2

[24] = test system: Candida glabrata ATCC 36583; test: In vitro broth microdilution assay (CLSI); assay type: cell-based
Description: as §1, §2

[25] = test system: Candida albicans ATCC44858; test: In vitro broth microdilution assay (CLSI); assay type: cell-based
Description: as §1, §2

[26] = test system: Candida parapsilosis ATCC 22019; test: In vitro broth microdilution assay (CLSI); assay type: cell-based
Description: as §1, §2

[27] = test system: Aspergillus fumigatus ATCC 13073; test: In vitro broth microdilution assay (CLSI); assay type: cell-based
Description: as §1, §2

[28] = KF water content of lyophilized formulations; assay type: physicochemical; details: lyo cake, T0; listed as API (lyo process)
Source text: Tables 17 and 18 summarize the % water content measured of the prepared formulations.

[29] = Storage stability of lyophilized formulations by HPLC; assay type: physicochemical; details: for RT 26.1 (hydrolysis degradation product) / RT 37.3 (dimerization degradation product) / HPLC purity % (total caspofungin): lyophilized
Description: General: HPLC analysis was carried out on a Waters 2695 separations module equipped with an autosampler and a Waters 996 photodiode array detector. The HPLC method is described below:
Aliquots of 0.5 mL of each formulation listed in Table 3 were frozen on dry ice for 30 min and lyophilized for 40 h to obtain white cakes. A portion of each cake was reconstituted in 1 mL of deionized water and analyzed by HPLC. The vials were stoppered, crimp sealed and placed on stability at 5° C. and 40° C.
Each liquid formulation in Table 5 was equally split into two vials, frozen on dry ice for 1 h and lyophilized for 90 h to obtain white cakes. The vials were stoppered, crimp sealed and placed on stability at 5° C. and 40° C.
The liquid formulations to be lyophilized were prepared according to Table 6. Aliquots of 0.5 mL of each liquid formulation were placed in 3 mL glass vials, frozen on dry ice for 40 min. The vials were partially stoppered with lyo septa and lyophilized for 5 days. The vials were placed on stability at 5° C., ambient (dark) and −20° C.
Fourteen 0.5 mL aliquots of each liquid formulation prepared in part C were placed in 14 3-mL glass vials. The vials were frozen on dry ice for about 1 h and lyophilized for 5 days to obtain white cake. The vials were stoppered, crimp sealed and placed on stability at −20° C., 5° C., and ambient (dark) conditions.
One vial of the lyophilized cake was reconstituted in 1 mL of deionized water to obtain a 10 mg/mL caspofungin diacetate solution. An aliquot (55 μL) was removed and diluted with 1 mL of deionized water for HPLC analysis.
Tables 11, 12, 13, and 14 summarize the total caspofungin (%) as determined by HPLC present for each formulation prepared prior to storage and after several storage conditions. RT as below refers to HPLC retention time. The product with a retention time of 26.1 minutes is a hydrolysis degradation product while the product with a retention time of 37.3 minutes is a dimerization degradation product that is obtained from the dimerization of the hydrolysis products.

Q: Which results are given for `CC[C@H](C)C[C@H](C)CCCCCCCCC(=O)N[C@H]1C[C@@H](O)[C@@H](NCCN)NC(=O)[C@@H]2[C@@H](O)CCN2C(=O)[C@H]([C@H](O)CCN)NC(=O)[C@H]([C@H](O)[C@@H](O)c2ccc(O)cc2)NC(=O)[C@@H]2C[C@@H](O)CN2C(=O)[C@H]([C@@H](C)O)NC1=O` [caspofungin]?
A: MIC90 [1]: 0.25 µg/mL (≈ 0.229 µM); MEC Average (Mode) [2]: 0.12 µg/mL; MEC Range [2]: 0.032 to 2 µg/mL; MIC90 Average (Geometric Mean MIC) ([3]; 10 isolates): 0.14 µg/mL (≈ 0.128 µM); MIC90 Range ([3]; 10 isolates): 0.06 to 0.5 µg/mL; MEC Average (Mode) ([3]; 440 isolates): 0.06 µg/mL; MEC Range ([3]; 440 isolates): 0.016 to 2 µg/mL; MIC90 [4]: 1 µg/mL (≈ 0.915 µM); MIC90 [5]: 0.06 µg/mL (≈ 0.0549 µM); MIC90 Average (Geometric Mean MIC) ([6]; 13 isolates): 0.2 µg/mL (≈ 0.183 µM); MIC90 Range ([6]; 13 isolates): 0.06 to 2 µg/mL; MEC Average (Mode) ([6]; 432 isolates): 0.06 µg/mL; MEC Range ([6]; 432 isolates): 0.016 to 32 µg/mL; MIC90 Average (Geometric Mean MIC) ([7]; 56 isolates): 0.25 µg/mL (≈ 0.229 µM); MIC90 Range ([7]; 56 isolates): 0.12 to 4 µg/mL; MEC Average (Mode) ([7]; 1691 isolates): 0.25 µg/mL; MEC Range ([7]; 1691 isolates): 0.016 to 32 µg/mL; MIC90 [8]: 1 µg/mL (≈ 0.915 µM); MIC90 [9]: 0.06 µg/mL (≈ 0.0549 µM); MIC90 [10]: 0.25 µg/mL (≈ 0.229 µM); MIC90 [11]: 0.06 µg/mL (≈ 0.0549 µM); Clinical signs of toxicity [12]: no clinical signs of toxicity; Effects on body weight [12]: no effects on body weight; Gross necropsy findings [12]: no gross necropsy findings; Mortality [12]: no test-article related mortality; MIC90 Average (Geometric Mean MIC) ([13]; 13 isolates): 0.44 µg/mL (≈ 0.402 µM); MIC90 Range ([13]; 13 isolates): 0.2 to 4 µg/mL; MEC Average (Mode) ([13]; 192 isolates): 0.12 µg/mL; MEC Range ([13]; 192 isolates): 0.032 to 16 µg/mL; MIC90 Average (Geometric Mean MIC) ([14]; 11 isolates): 0.12 µg/mL (≈ 0.11 µM); MIC90 Range ([14]; 11 isolates): 0.06 to .2 µg/mL; MEC Average (Mode) ([14]; 385 isolates): 0.06 µg/mL; MEC Range ([14]; 385 isolates): 0.016 to 2 µg/mL; Kidney concentration, radiolabeled compound (Stone 2004) ([15]; 0.5 h): 9.15 µg/g; Kidney concentration, radiolabeled compound (Stone 2004) ([15]; 2 h): 10.60 µg/g; Kidney concentration, radiolabeled compound (Stone 2004) ([15]; 24 h): 11.40 µg/g

Q: Which MEC [16] does the source give for caspofungin diacetate here?
A: 0.125 µg/mL

Q: And the MIC [17]?
A: 1 µg/mL

Q: And the MIC [18]?
A: 0.25 µg/mL

Q: And the MIC ([19]; Candida albicans ATCC90028)?
A: 0.25 µg/mL

Q: What about the MIC ([19]; Candida albicans ATCC90028 + 50% human serum) of the same molecule?
A: 0.125 µg/mL

Q: What about the MIC [20] of the same molecule?
A: 0.25 µg/mL

Q: And the MEC [21]?
A: 0.125 µg/mL

Q: And the MIC [22]?
A: 0.25 µg/mL

Q: And the MIC [23]?
A: 16 µg/mL

Q: What about the MIC [24] of the same molecule?
A: 0.25 µg/mL

Q: What about the MIC [25] of the same molecule?
A: 0.25 µg/mL

Q: And the MIC [26]?
A: 1 µg/mL

Q: What about the MEC [27] of the same molecule?
A: 0.0625 µg/mL

Q: What about the “KF water content %” value [28] of the same molecule?
A: 6.16% and 3.94%

Q: What about the “HPLC purity of control” value ([29]; Pure API control, as printed in the head) of the same molecule?
A: 99.72%)

Q: And the “RT 26.1 (hydrolysis degradation product)” value ([29]; 40° C. 1 week)?
A: 2.88%

Q: And the “RT 37.3 (dimerization degradation product)” value ([29]; 40° C. 1 week)?
A: 9.26%

Q: What about the “HPLC purity % (total caspofungin)” value ([29]; 40° C. 1 week, listed as API (lyo process)) of the same molecule?
A: 82.32%

Q: And the “HPLC purity % (total caspofungin)” value ([29]; 40° C. 1 week, listed as Pure API)?
A: 88.48%

Q: What about the “HPLC purity % (total caspofungin)” value ([29]; 40° C. 3 week) of the same molecule?
A: 75.71%

Q: What about the “RT 26.1 (hydrolysis degradation product)” value ([29]; 40° C. 3 week) of the same molecule?
A: 6.09%

Q: What about the “RT 37.3 (dimerization degradation product)” value ([29]; 40° C. 3 week) of the same molecule?
A: 4.38%

Q: What about the “RT 26.1 (hydrolysis degradation product)” value ([29]; T0) of the same molecule?
A: 2.17%

Q: What about the “RT 37.3 (dimerization degradation product)” value ([29]; T0) of the same molecule?
A: 1.57%

Q: And the “HPLC purity % (total caspofungin)” value ([29]; T0, listed as API (lyo process))?
A: 95.82% and 95.42%
